Legend:
Sprague-Dawley rats = experiment: Glucose tolerance test (glucose 1 g/kg IP) in dexamethasone-treated rats; assay type: in vivo, rat
Method: (§1) (A) Sprague-Dawley rats were treated with myriocin (300 μg/Kg, IP, solid bars) or saline (open bars) for two weeks prior to giving administering dexamethasone (40 μg/Kg, IP) or vehicle (5% ethanol) every 12 hours for 36 hours. Animals were euthanized by CO2 inhalation, livers were removed, and ceramide levels were assessed as described in SOM-Methods. Shown are mean ceramide levels+/−S.E.M, n=6 per group. The asterisk denotes that the sample was statistically different from vehicle-treated controls, p<0.05, student's t-test. (B) Livers were obtained as in A, above, and protein and mRNA were extracted as described in SOM-Methods. Levels of transcripts (solid bars) encoding serine palimitoyl transferase isoforms 1 and 2 (SPT1 and SPT2), dihydroceramide synthases (DCS) TL1, UOG, and TRH3, glucosylceramide synthase (GCS), and acid ceramidase (AC) transcripts were obtained by reverse-transcriptase polymerase chain reaction, normalized to β-actin. SPT2 protein levels (white bars) were detected by immunoblotting with an antibody from Cayman Chemicals (Ann Arbor, Mich.) and quantified on a Kodak Image Station 2000R (Rochester, N.Y.). Data represent the fold-change in transcript or protein in dexamethasone-treated animals relative to vehicle controls. […] (C and D) Rats were challenged with glucose (1 g/kg) given intraperitoneally (IP) following treatment with dexamethasone (squares), ethanol carrier (triangles), myriocin (open shapes), or saline (solid shapes) as in A, above. Tail vein blood (3 μl) was sampled for glucose (C)(using the Glucometer Elite from Bayer Corp., Tarrytown, N.Y.) or insulin (D) (using an Elisa kit from Linco Diagnostics, Springfield, Mo.). […] (E-G) Hyperinsulinemic euglycemic clamps were performed on animals (n=4 per group) treated as in A, above, as described in SOM-Methods. Data from animals receiving myriocin are depicted in solid bars. (E) The glucose infusion rate required to maintain normal glycemia during insulin infusion ([…]) was calculated as the average infusion rate during the 60 minute steady state. (F) Hepatic glucose output was estimated by the disappearance of [^14C] glucose from a bolus dose given during the steady state minus the glucose infusion rate. (G) Disappearance of a bolus dose of [^3H] 2-deoxyglucose from the bloodstream was used to estimate the rate of whole body glucose uptake.
Tail vein blood (3 μl) was sampled for glucose determination (Hitachi 911 clinical chemistry analyzer, Roche, Indianapolis, Ind. or Glucometer Elite, Bayer Corp., Tarrytown, N.Y.)-30 minutes, immediately before and 15, 30, 45, 60, 90, and 120 min after glucose administration. Additionally, serum was collected and analyzed for insulin by Elisa (Linco Diagnostics, Springfield, Mo.).

male Sprague Dawley Rats = experiment: Insulin tolerance test in dexamethasone-treated rats; assay type: in vivo, rat; conditions: dexamethasone 400 μg/kg IP 24 and 12 hours prior; myriocin 0.3 mg/kg/2 days for 1 week
Method: Following an overnight fast, insulin was injected (20 U, IP) and whole blood glucose was determined by glucometer. Values are presented as the ratio of measured blood glucose to fasting blood glucose.
(§2) To definitively evaluate effects on insulin sensitivity, as well as to distinguish whether the treatment protocols differentially affected glucose uptake in skeletal muscle or hepatic output by the liver, hyperinsulinemic-euglycemic clamps with D-[U-^14C] glucose and 2-deoxy-D-[2,6-^3H] glucose tracers were performed.

Sprague dawley rats [1] = experiment: Hyperinsulinemic euglycemic clamps of dexamethasone treated rats; assay type: in vivo, rat; conditions: for Insulin, During Clamp / FFA / Glucose, Before Clamp / Insulin, Before Clamp: plasma, mean ± standard error, n=4; for Insulin, During Clamp: steady state; for FFA: Before Clamp by layout
Method: as §1, §2
Clamps were performed in conscious unrestrained animals using swivels and tethers (Instech, Plymouth Meeting, Pa.) to allow uninterrupted movement of the animal without disruption of infusion lines. Hyperinsulinemia was initiated by intravenous infusion of insulin (10 mU/kg/min at a flow rate of 4 μL/min). Blood was sampled from arterial lines in 7 minute intervals and analyzed with a Beckman Glucose analyzer II (Beckman Coulter, Fullerton, Calif.). Euglycemia was maintained by variable infusion of 20% dextrose. Steady state was achieved approximately 90 minutes after initiating hyperinsulinemia and maintained for 30 minutes. Glucose infusion rates were calculated as the average glucose infusion rate during the 30 minute steady state. Additional blood samples were taken before initiating hyperinsulinemia and at the end of the clamp for analysis of insulin and free fatty acids.

[2] = system: Zucker Diabetic Fatty (ZDF) rats; experiment: Myriocin treatment of Zucker Diabetic Fatty rats; assay type: in vivo, rat
Zucker fa/fa rat = experiment: Myriocin in non-diabetic insulin resistance model, Zucker fa/fa rat; assay type: in vivo
DIO mice = experiment: Myriocin in non-diabetic insulin resistance model, DIO mice; assay type: in vivo
Sprague dawley rats [3] = experiment: Hyperinsulinemic euglycemic clamps of dexamethasone treated rats; assay type: in vivo, rat; conditions: plasma, 60 minute steady state, mean ± standard error, n=4
soleus muscles = experiment: Isolated soleus muscle strips incubated with free fatty acids; conditions: cycloserine 1 mM or myriocin 10 μM
[4] = dexamethasone with or without myriocin pretreatment
[5] = glucose challenge 1 g/kg IP, n=6 per group, p<0.05
[6] = clamp, dexamethasone with or without myriocin pretreatment
[7] = Dexamethasone-treated (Saline or Myriocin)
[8] = treatment starting at week 8, vs vehicle

`CCCCCCC(=O)CCCCCC/C=C/C[C@@H](O)[C@H](O)[C@@](N)(CO)C(=O)O` [Myriocin] was tested, and the “glucose disposal / glucose intolerance in glucose tolerance test” value (Sprague-Dawley rats; [4]) was “significantly negated glucocorticoid-induced glucose intolerance”, the “insulin levels during glucose tolerance test” value (Sprague-Dawley rats; [4]) was “normalized circulating insulin concentrations” and the “area under the curve, glucose” value (Sprague-Dawley rats; [5]) was “significantly lowered the area under the curve”. For the same molecule, the “area under the curve, insulin” value (Sprague-Dawley rats; [5]) was “significantly lowered the area under the curve”, the “insulin sensitivity in insulin tolerance tests” value (male Sprague Dawley Rats) was “fully negated” and the “2-deoxyglucose uptake into skeletal muscle / insulin resistance in skeletal muscle” value (Sprague dawley rats [1]; [6]) was “partially blocked”. For the same molecule, the “insulin-induced suppression of hepatic glucose output” value (Sprague dawley rats [1]; [6]) was “completely prevented”, the “insulin-responsiveness (glucose infusion rate, hepatic glucose output, whole body glucose uptake; FIG. 1E-G)” value (Sprague dawley rats [1]; clamp, n=4 per group, p<0.05) was “significantly restored insulin-responsiveness” and the “Insulin, During Clamp” value (Sprague dawley rats [1]; [7]) was 5.4 ± 1.4 ng/mL. The “Insulin, During Clamp” value (Sprague dawley rats [1]; Dexamethasone: Control) was 6.4 ± 0.5 ng/mL, the FFA (Sprague dawley rats [1]; [7]) was 176 ± 34 µM and the FFA (Sprague dawley rats [1]; Dexamethasone: Control) was 258 ± 29 µM. The “Glucose, Before Clamp” value (Sprague dawley rats [1]; [7]) was 137.0 ± 2.1 mg/dL, the “Insulin, Before Clamp” value (Sprague dawley rats [1]; [7]) was 2.34 ± 0.49 ng/mL and the “Glucose, Before Clamp” value (Sprague dawley rats [1]; Dexamethasone: Control) was 123.6 ± 7.7 mg/dL. The “Insulin, Before Clamp” value (Sprague dawley rats [1]; Dexamethasone: Control) was 2.05 ± 0.25 ng/mL, the “age until which the improvement in blood glucose persisted” value ([2]; ZDF rats) was “at least 16 weeks” and the “ceramides in liver, soleus and serum” value ([2]; ZDF rats) was “reduced levels of the sphingolipid in all these tissues”. The tolerability ([2]; ZDF rats and lean controls, myriocin for up to 6 weeks) was “well-tolerated”, the glucose homeostasis ([2]; male ZDF rats, myriocin 0.3 mg/kg IP every other day (FIG. 4 legend)) was “markedly improved glucose homeostasis” and the side effects ([2]; rat, in vivo) was “no apparent side effects”. The onset of diabetes ([2]; treatment starting at week 8) was “prevented the onset of diabetes”, the plasma glucose levels [2, 8] was “reduced” and the triglyceride levels [2, 8] was “reduced”. The glucose homeostasis (Zucker fa/fa rat) was “improved glucose homeostasis”, the insulin levels (Zucker fa/fa rat) was “lowered insulin levels” and the glucose homeostasis (DIO mice) was “improved glucose homeostasis”. For the same molecule, the insulin levels (DIO mice) was “lowered insulin levels”, the “Glucose, During Clamp” value (Sprague dawley rats [3]; [7]) was 129.3 ± 3.7 mg/dL and the “Glucose, During Clamp” value (Sprague dawley rats [3]; Dexamethasone: Control) was 130.5 ± 2.9 mg/dL. The “linoleate effects on 2-DOG uptake” value (soleus muscles; 1 mM linoleate) was “did not alter linoleate effects”, the “linoleate effects on DAG accumulation” value (soleus muscles; 1 mM linoleate) was “did not alter linoleate effects” and the “DAG in palmitate-treated muscles” value (soleus muscles; 1 mM palmitate) was “without affecting DAG”. The “palmitate effect on insulin-stimulated 2-deoxyglucose uptake” value (soleus muscles; 1 mM palmitate) was “completely negated the antagonistic effects of palmitate” and the palmitate-induced ceramide accumulation (soleus muscles; 1 mM palmitate) was “prevented palmitate-induced ceramide accumulation”.

Reference: patent publication US20100048714A1, “Methods and Compositions Related to Inhibition of Ceramide Synthesis” (University of Utah Research Foundation, priority 2006, published 2010)
